Data from patent US20090047243A1, “COMBINATIONS FOR THE TREATMENT OF B-CELL PROLIFERATIVE DISORDERS” (priority 2007, published 2009).
Where a name gives a salt, the structure may show the parent alone. Read-outs that look alike come from different tables or passages of the source.

Tests used:
[1] = system: RPMI-8226 multiple myeloma cell line; assay: Anti-proliferation assay (ATPLite, 72 h); assay type: cell-based, human; set-up: key: S = lnfX·lnfY·ΣIdata(Idata−ILoewe), volume over Loewe additivity
Summary of the method: (§1)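 ATPLite luminescence readout; ANBL6 medium + 10 ng/ml IL-6. Single agents tested at 12 concentrations, 2- or 3-fold serial dilutions. % inhibition vs untreated-well mean.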

[2] = system: H929 multiple myeloma cell line; assay: Anti-proliferation assay (ATPLite, 72 h); assay type: cell-based, human; set-up: key: S = lnfX·lnfY·ΣIdata(Idata−ILoewe), volume over Loewe additivity
Summary of the method: as §1

[3] = system: RPMI-8226, H929, MM.1S and MM.1R MM cell lines; assay: Anti-proliferation assay, statements across MM cell lines; assay type: cell-based, human; conditions: crossed with adenosine receptor agonists
Procedure: The MM.1S, MM.1R, H929, MOLP-8, EJM, INA-6, ANBL6, KSM-12-PE, OPM2, and RPMI-8226 multiple myeloma cell lines, as well as the Burkitt's lymphoma cell line GA-10 and the non-Hodgkin's lymphoma cell lines Farage, SU-DHL6, and Karpas 422 were cultured at 37° C. and 5% CO2 in RPMI-1640 media supplemented with 10% FBS. ANBL6 and INA-6 culture media was also supplemented with 10 ng/ml IL-6. The OCI-ly10 cell line was cultured using RPMI-1640 media supplemented with 20% human serum. MM.1S, MM.1R, OCI-ly10, Karpas 422, and SU-DHL6 cells were provided by the Dana Farber Cancer Institute. H929, RPMI-8226, GA-10, and Farage cells were from ATCC (Cat #'s CCL-155, CRL-9068, CRL-2392 and CRL-2630 respectively). MOLP-8, EJM, KSM-12-PE, and OPM2 were from DSMZ. The ANBL6 and INA-6 cell lines were provided by the M. D. Anderson Cancer Research Center.
Compounds were prepared in DMSO at 1000× the highest desired concentration. Master plates were generated consisting of serially diluted compounds in 2- or 3-fold dilutions in 384-well format. For single agent dose response curves, the master plates consisted of 9 individual compounds at 12 concentrations in 2- or 3-fold dilutions. For combination matrices, master plates consisted of individual compounds at 6 or 9 concentrations at 2- or 3-fold dilutions.
Cells were added to 384-well plates 24 hours prior to compound addition such that each well contained 2000 cells in 35 μL of media. Master plates were diluted 100× (1 μL into 100 μL) into 384-well dilution plates containing only cell culture media. 4.5 μL from each dilution plate was added to each assay plate for a final dilution of 1000×. To obtain combination data, two master plates were diluted into the assay plates. Following compound addition, assay plates were kept at 37° C. and 5% CO2 for 72 hours. Thirty microliters of ATPLite (Perkin Elmer) at room temperature was then added to each well. Final amount of ATP was quantified within 30 minutes using ATPLite luminescent read-out on an Envision 2103 Multilabel Reader (Perkin Elmer). Measurements were taken at the top of the well using a luminescence aperture and a read time of 0.1 seconds per well.
The Loewe additivity model was used to quantify combination effects. Combinations were ranked initially by Additivity Excess Volume, which is defined as ADD Volume=ΣCX, CY (Idata−ILoewe). where ILoewe(CX, CY) is the inhibition that satisfies (CX/ECX)+(CY/ECY)=1, and ECX,Y are the effective concentrations at ILoewe for the single agent curves. A “Synergy Score” was also used, where the Synergy Score S=log fX log fY ΣIdata(Idata−ILoewe), summed over all non-single-agent concentration pairs, and where log fX,Y is the natural logarithm of the dilution factors used for each single agent. This effectively calculates a volume between the measured and Loewe additive response surfaces, weighted towards high inhibition and corrected for varying dilution factors. An uncertainty σS was calculated for each synergy score, based on the measured errors for the Idata values and standard error propagation.

[4] = system: human multiple myeloma cells (MM.1S); assay: Anti-proliferation assay (ATPLite, 72 h); assay type: cell-based; set-up: key to synergy score / synergy (score), PDEi × HE-NECA: S = lnfX·lnfY·ΣIdata(Idata−ILoewe), volume over Loewe additivity
Summary of the method: as §1

Q: For COc1cc2c(cc1OC)-c1cc(=Nc3c(C)cc(C)cc3C)n(C)c(=O)n1CC2 [Trequinsin hydrochloride, 2,3,6,7-tetrahydro-9,10-dimethoxy-3-methyl-2-((2,4,6-trimethylphenyl)imino)-4H-pyrimido(6,1-a)isoquinolin-4-one], which synergy score ([1]; in combination with adenosine receptor agonist ADAC, RPMI-8226) is on record?
A: 0.9183

Q: What about the synergy score ([1]; in combination with adenosine receptor agonist CGS-21680, RPMI 8226) of the same compound?
A: 0.72

Q: And the synergy score ([1]; in combination with adenosine receptor agonist HE-NECA, RPMI-8226)?
A: 0.793

Q: What about the synergy score ([1]; in combination with adenosine receptor agonist regadenoson, RPMI 8226) of the same compound?
A: 0.4

Q: And the “synergy (score), PDEi × HE-NECA” value ([2]; 6×6 cross of PDE inhibitor or PDE inhibitor mixture with HE-NECA, H929)?
A: 4.22

Q: What about the synergy score ([2]; PDE inhibitor crossed with (S) ENBA, H929) of the same compound?
A: 3.38

Q: What about the synergy score ([2]; PDE inhibitor crossed with ADAC, H929) of the same compound?
A: 3.04

Q: What about the synergy score ([2]; PDE inhibitor crossed with Chloro-IB-MECA, H929) of the same compound?
A: 2.77

Q: And the synergy score ([2]; PDE inhibitor crossed with HE-NECA, H929)?
A: 4.34

Q: What about the synergy score ([2]; in combination with adenosine receptor agonist ADAC, H929) of the same compound?
A: 3.044

Q: What about the synergy score ([2]; in combination with adenosine receptor agonist CGS-21680, H929) of the same compound?
A: 3.33

Q: And the synergy score ([2]; in combination with adenosine receptor agonist HE-NECA, H929)?
A: 3.141

Q: What about the synergy score ([2]; in combination with adenosine receptor agonist regadenoson, H929) of the same compound?
A: 1.99

Q: What about the “rank of synergy scores among PDE inhibitors” value [3] of the same compound?
A: highest synergy scores

Q: And the “synergy (score), PDEi × HE-NECA” value ([4]; 6×6 cross of PDE inhibitor or PDE inhibitor mixture with HE-NECA, MM.1S)?
A: 5.7

Q: And the inhibition at 0.377 µM ([4]; Homo sapiens, MM1.S, 10 ng/mL IL-6, Trequinsin 0.377 μM, HE-NECA conc. (nM), read-out: percent inhibition of ATP in MM.1S cells)?
A: -1.2%

Q: And the inhibition at 1.13 µM ([4]; Homo sapiens, MM1.S, 10 ng/mL IL-6, Trequinsin 1.13 μM, HE-NECA conc. (nM), read-out: percent inhibition of ATP in MM.1S cells)?
A: 5.1%

Q: What about the inhibition at 3.39 µM ([4]; Homo sapiens, MM1.S, 10 ng/mL IL-6, Trequinsin 3.39 μM, HE-NECA conc. (nM), read-out: percent inhibition of ATP in MM.1S cells) of the same compound?
A: 8.9%

Q: And the inhibition at 10.2 µM ([4]; Homo sapiens, MM1.S, 10 ng/mL IL-6, Trequinsin 10.2 μM, HE-NECA conc. (nM), read-out: percent inhibition of ATP in MM.1S cells)?
A: 26%

Q: What about the inhibition at 30.5 µM ([4]; Homo sapiens, MM1.S, 10 ng/mL IL-6, Trequinsin 30.5 μM, HE-NECA conc. (nM), read-out: percent inhibition of ATP in MM.1S cells) of the same compound?
A: 95%

Q: And the inhibition at 0.377 µM ([4]; Homo sapiens, MM1.S, 72 h, trequinsin 0.377 μM alone (HE-NECA 0), 72 h, read-out: Percent inhibition of ATP in MM.1S cells)?
A: 7.4%

Q: And the inhibition at 1.13 µM ([4]; Homo sapiens, MM1.S, 72 h, trequinsin 1.13 μM alone (HE-NECA 0), 72 h, read-out: Percent inhibition of ATP in MM.1S cells)?
A: 0.96%

Q: What about the inhibition at 3.39 µM ([4]; Homo sapiens, MM1.S, 72 h, trequinsin 3.39 μM alone (HE-NECA 0), 72 h, read-out: Percent inhibition of ATP in MM.1S cells) of the same compound?
A: 10%

Q: And the inhibition at 10.17 µM ([4]; Homo sapiens, MM1.S, 72 h, trequinsin 10.17 μM alone (HE-NECA 0), 72 h, read-out: Percent inhibition of ATP in MM.1S cells)?
A: 26%

Q: And the inhibition at 30.5 µM ([4]; Homo sapiens, MM1.S, 72 h, trequinsin 30.5 μM alone (HE-NECA 0), 72 h, read-out: Percent inhibition of ATP in MM.1S cells)?
A: 68%

Q: And the synergy score ([4]; PDE inhibitor crossed with (S) ENBA, MM.1S)?
A: 4.56

Q: What about the synergy score ([4]; PDE inhibitor crossed with ADAC, MM.1S) of the same compound?
A: 6.62

Q: And the synergy score ([4]; PDE inhibitor crossed with Chloro-IB-MECA, MM.1S)?
A: 5.95

Q: What about the synergy score ([4]; PDE inhibitor crossed with HE-NECA, MM.1S) of the same compound?
A: 7.85

Q: What about the synergy score ([4]; in combination with adenosine receptor agonist ADAC, MM.1S) of the same compound?
A: 6.619

Q: And the synergy score ([4]; in combination with adenosine receptor agonist CGS-21680, MM.1S)?
A: 6.26

Q: And the synergy score ([4]; in combination with adenosine receptor agonist HE-NECA, MM.1S)?
A: 7.235

Q: And the synergy score ([4]; in combination with adenosine receptor agonist regadenoson, MM.1S)?
A: 1.85
